Assays:
[1] = GVS (Gravimetric Vapor Sorption) and XRPD analysis post GVS; format: physicochemical
[2] = Storage stability: XRPD and HPLC analysis post storage at 40° C./75% RH or 25° C./97% RH; format: physicochemical; details: three days
From the text: Samples were run under ambient conditions as flat plate specimens using powder as received. The sample was gently packed into a cavity cut into polished, zero-background (510) silicon wafer. The sample was rotated in its own plane during analysis.

Compound: CS(=O)(=O)O.C[C@@H](O)[C@H]1C(=O)N2C(C(=O)OCOC(=O)C(C)(C)C)=C(SC3CN(C4=NCCS4)C3)[C@H](C)[C@H]12 [Example 8, Tebeipenem Pivoxil Methane Sulfonate Salt (MSA)]
- Hygroscopicity by GVS [1]: hygroscopic
- GVS uptake ([1]; from 0 to 90% RH): 10.0%

Compound: CC(O)C1C(=O)N2C(C(=O)OCOC(=O)C(C)(C)C)=C(SC3CN(C4=NCCS4)C3)C(C)C12.O=S(=O)(O)CCS(=O)(=O)O (stereo not drawn) [Example 13, Tebipenem Pivoxil Edisylate (EDSA) Salt]
- Appearance post storage [2]: deliquesced

Reference: patent US10889587B2, “Tebipenem pivoxil crystalline forms, compositions including the same, methods of manufacture, and methods of use” (SPERO THERAPEUTICS, INC., priority 2017, dated 2021)
